Results as given in patent US11072638B2, “Immunostimulating peptides” (AIMVION A/S, priority 2016, dated 2021).
Bridge positions count the residues as written; N and C are the ends. Ends that are not written are not given here. I, II: the chains in the order shown.

Key:
[1] = test system: female BALB/c mice; experiment: Anti-ovalbumin IgG1 ELISA after in vivo immunization of mice (Example 3); settings: s.c. day 1 and day 14, 5 μg SG#4 + 50/25 μg ovalbumin per animal, serum at day 21
Source text: Chicken ovalbumin has been used to trigger T cell activation in immunology studies. Ovalbumin immunized mice produce anti-OVA antibodies predominantly of the IgG1 and IgE isotypes that mediate tissue-specific effector functions in multiple mouse models. Thus, it is often desirable to measure anti-OVA antibody levels in the plasma or serum to determine the effectiveness of the immunization/induction of a TH2-mediated immune response. Here, we tested the effectiveness of the SG #4 peptide in inducing of a TH2-mediated immune response in female BALB/c mice. The study agents contained Ovalbumin alone, peptide construct SG #4 alone or ovalbumin in combination with SG #4. […]
An ELISA assay was carried out according to the manufacturer's protocol, as follows. […] This Goat Anti-mouse IgG1 was labeled with HRP, allowing quantification of the […]. Addition of the HRP Substrate 3,3′,5,5′-tetramethylbenzidine (TMB), following by Stop Solution produces a yellow colored product which was measured spectrophotometrically. […] 1 mL of the top standard concentration (250 pg/mL anti-ovalbumin IgG1 quantification) was prepared in 1× Assay Diluent A (1×AD) from the anti-ovalbumin IgG1 stock solution. […] Using computer reduction software, absorbance (linear y-axis) for standard versus concentration (linear x-axis) is plotted and data is fitted with a quadratic equation. […]

[2] = test system: THP-1 cells; experiment: IL-6 levels in LPS-stimulated THP-1 cells, 6 h (Example 1); format: cell-based, human; settings: for % IL-6 secretion level compared to LPS-stimulated control: THP-1, 1 μg/μl LPS for 6 h, + above, − below LPS-only control (100%); for Release of cytokines, including pro-inflammatory cytokines such as IL-6, TNF-alpha, and IL-8: pre-treatment of cells with peptide
Protocol: The modulatory function of peptides SG #4, SG #8, SG #13, and SG #14 on the expression levels of IL-6 in the human acute monocytic leukaemia cell line THP-1 was examined. THP-1 cells were maintained in RPMI 1640 supplemented with 10% FBS, 100 U/ml penicillin, 100 μg/ml streptomycin and 2 mM L-glutamine at 37° C. in a 5% CO2 incubator. THP-1 cells are known to induce IL-6, TNFα, IL-10 and IL-8 mRNA and protein in response to lipopolysaccharide (LPS) treatment. THP-1 cells were left untreated or incubated with 0 uM, 7.5 μM, 15 μM, 30 μM, 60 μM or 100 μm of each of the peptides, and stimulated with […] LPS for 6 h, based on previous analyses to find the optimal dose and incubation times.
(−) inhibition indicates percentage (%) of inhibition as compared to only LPS treated samples (arbitrarily set at 100%).

LQNRRGLGLSILLNC (disulfide I:15-II:15 (inferred)) [SG#4]
Induction of immune response (anti-ovalbumin IgG1) versus ovalbumin alone [1]: significantly higher induction of immune response
% IL-6 secretion level compared to LPS-stimulated control ([2]; 7.5 μM peptide): +12.99%
% IL-6 secretion level compared to LPS-stimulated control ([2]; 15 μM peptide): +20.76%
% IL-6 secretion level compared to LPS-stimulated control ([2]; 30 μM peptide): +38.19%
% IL-6 secretion level compared to LPS-stimulated control ([2]; 60 μM peptide): +36.39%
% IL-6 secretion level compared to LPS-stimulated control ([2]; 100 μM peptide): +13.27%
Release of cytokines, including pro-inflammatory cytokines such as IL-6, TNF-alpha, and IL-8 [2]: promotes the release of cytokines

LQNKRGLGLSILLNEECGPGPGP (disulfide I:17-II:17 (inferred)) [SG#8]
% IL-6 secretion level compared to LPS-stimulated control ([2]; 7.5 μM peptide): +1.472%
% IL-6 secretion level compared to LPS-stimulated control ([2]; 15 μM peptide): +14.54%
% IL-6 secretion level compared to LPS-stimulated control ([2]; 30 μM peptide): +6.835%
% IL-6 secretion level compared to LPS-stimulated control ([2]; 60 μM peptide): +7.655%
% IL-6 secretion level compared to LPS-stimulated control ([2]; 100 μM peptide): +20.86%
Release of cytokines, including pro-inflammatory cytokines such as IL-6, TNF-alpha, and IL-8 [2]: promotes the release of cytokines

LQNRRGLGLSILLNEE (Mutated sequence) [SG#13]
% IL-6 secretion level compared to LPS-stimulated control ([2]; 7.5 μM peptide): −5.765%
% IL-6 secretion level compared to LPS-stimulated control ([2]; 15 μM peptide): +6.907%
% IL-6 secretion level compared to LPS-stimulated control ([2]; 30 μM peptide): −5.286%
% IL-6 secretion level compared to LPS-stimulated control ([2]; 60 μM peptide): +8.616%
% IL-6 secretion level compared to LPS-stimulated control ([2]; 100 μM peptide): +36.98%
Release of cytokines, including pro-inflammatory cytokines such as IL-6, TNF-alpha, and IL-8 [2]: promotes the release of cytokines

LQNRRGLGLSILLNEELQNRRGL (Mutated sequence) [SG#14]
% IL-6 secretion level compared to LPS-stimulated control ([2]; 7.5 μM peptide): −2.981%
% IL-6 secretion level compared to LPS-stimulated control ([2]; 15 μM peptide): −0.4476%
% IL-6 secretion level compared to LPS-stimulated control ([2]; 30 μM peptide): +0.7403%
% IL-6 secretion level compared to LPS-stimulated control ([2]; 60 μM peptide): +28.52%
% IL-6 secretion level compared to LPS-stimulated control ([2]; 100 μM peptide): +15.21%
Release of cytokines, including pro-inflammatory cytokines such as IL-6, TNF-alpha, and IL-8 [2]: promotes the release of cytokines
